In US8217066B2, “Compounds as lysophosphatidic acid receptor antagonists” (Amira Pharmaceuticals, Inc., priority 2009, dated 2012):

Target: T1, human LPA1 (Homo sapiens, UniProt Q92633)
T1 construct: the full-length cDNA for human LPA1 was obtained by PCR of the reverse transcription reaction; expressed in transfected cells
Test: LPA1 calcium flux assay (HLPA1 Ca Flux)
Assay type: cell-based
Conditions: CHO cells stably expressing human LPA1, stimulated with 10 nM LPA
Description: A 1.1 kb cDNA encoding the human LPA1 receptor was cloned from human lung. Human lung RNA (Clontech Laboratories, Inc. USA) was reverse transcribed using the RETROscript kit (Ambion, Inc.) and the full-length cDNA for human LPA1 was obtained by PCR of the reverse transcription reaction. The nucleotide sequence of the cloned human LPA1 was determined by sequencing and confirmed to be identical to the published human LPA1 sequence (An et al. Biochem. Biophys. Res. Commun. 231:619 (1997). The cDNA was cloned into the pcDNA5/FRT expression plasmid and transfected in CHO cells using lipofectamine 2000 (Invitrogen Corp., USA). Clones stably expressing human LPA1 were selected using hygromycin and identified as cells that show Ca-influx in response to LPA.
Human LPA1 or LPA3 expressing CHO cells are seeded at 20,000-45,000 cells per well in a 96-well poly-D-lysine coated plate one or two days before the assay. Prior to the assay, the cells are washed once with PBS and then cultured in serum-free media overnight. On the day of the assay, a calcium indicator dye (Calcium 4, Molecular Devices) in assay buffer (HBSS with Ca^2+ and Mg^2+ and containing 20 mM Hepes and 0.3% fatty-acid free human serum albumin) is added to each well and incubation continued for 1 hour at 37° C. […] of test compounds in 2.5% DMSO are added to the cells and incubation continued at room temperature for 30 minutes. Cells are the stimulated by the addition of 10 nM LPA and intracellular Ca^2+ measured using the Flexstation 3 (Molecular Devices). IC50s are determined using Graphpad prism analysis of drug titration curves.

T1 sequence (Q92633 whole entry): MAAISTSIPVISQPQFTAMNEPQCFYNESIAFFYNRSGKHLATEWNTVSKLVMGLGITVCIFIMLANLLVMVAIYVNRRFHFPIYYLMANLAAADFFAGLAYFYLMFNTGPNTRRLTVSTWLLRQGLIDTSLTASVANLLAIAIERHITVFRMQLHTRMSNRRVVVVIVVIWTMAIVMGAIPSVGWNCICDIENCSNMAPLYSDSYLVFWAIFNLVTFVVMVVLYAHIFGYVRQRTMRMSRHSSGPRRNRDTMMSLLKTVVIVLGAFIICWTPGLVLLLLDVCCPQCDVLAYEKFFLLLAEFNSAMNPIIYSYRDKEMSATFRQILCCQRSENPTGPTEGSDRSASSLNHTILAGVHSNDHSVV

| IC50 [nM] | SMILES |
| --- | --- |
| < 300 | Cc1noc(-c2ccc(-c3ccc(C4(C(=O)O)CC4)cc3)cc2)c1NCCCc1ccccc1 [Compound 2, 1-{4′-[3-Methyl-4-(3-phenyl-propylamino)-isoxazol-5-yl]-biphenyl-4-yl}-cyclopropanecarboxylic acid] |
| 300 to 1000 | Cc1noc(-c2ccc(-c3ccc(C4(C(=O)O)CC4)cc3)cc2)c1CNCCc1ccccc1 [Compound 5, 1-{4′-[3-Methyl-4-(phenethylamino-methyl)-isoxazol-5-yl]-biphenyl-4-yl}-cyclopropanecarboxylic acid] |
| < 300 | Cc1noc(-c2ccc(-c3ccc(C4(C(=O)O)CC4)cc3)cc2)c1CCCCc1ccccc1 [Compound 6, 1-{4′-[3-Methyl-4-(4-phenyl-butyl)-isoxazol-5-yl]-biphenyl-4-yl}-cyclopropanecarboxylic acid] |
| < 300 | Cc1noc(-c2ccc(-c3ccc(C4(C(=O)O)CC4)cc3)cc2)c1CCOCc1ccccc1 [Compound 7, 1-{4′-[4-(2-Benzyloxy-ethyl)-3-methyl-isoxazol-5-yl]-biphenyl-4-yl}-cyclopropanecarboxylic acid] |
| < 300 | Cc1noc(-c2ccc(-c3ccc(C4(C(=O)O)CC4)cc3)cc2)c1COCCc1ccccc1 [Compound 8, 1-[4′-(3-Methyl-4-phenethyloxymethyl-isoxazol-5-yl)-biphenyl-4-yl]-cyclopropanecarboxylic acid] |
| < 300 | Cc1noc(-c2ccc(-c3ccc(C4(C(=O)O)CC4)cc3)cc2)c1COC(C)Cc1ccccc1 (stereo not shown) [Compound 9, 1-{4′-[3-Methyl-4-(1-methyl-2-phenyl-ethoxymethyl)-isoxazol-5-yl]-biphenyl-4-yl}-cyclopropanecarboxylic acid] |
| < 300 | Cc1noc(-c2ccc(-c3ccc(C4(C(=O)O)CC4)cc3)cc2)c1CSCCc1ccccc1 [Compound 10, 1-[4′-(3-Methyl-4-phenethylsulfanylmethyl-isoxazol-5-yl)-biphenyl-4-yl]-cyclopropanecarboxylic acid] |
| < 300 | Cc1noc(-c2ccc(-c3ccc(C4(C(=O)O)CC4)cc3)cc2)c1CCOC(C)c1ccccc1 (stereo not shown) [Compound 14, 1-(4′-{3-Methyl-4-[2-(1-phenyl-ethoxy)-ethyl]-isoxazol-5-yl}-biphenyl-4-yl)-cyclopropanecarboxylic acid] |
| < 300 | Cc1noc(-c2ccc(-c3ccc(C4(C(=O)O)CC4)cc3)cc2)c1CCSCc1ccccc1 [Compound 18, 1-{4′-[4-(2-Benzylsulfanyl-ethyl)-3-methyl-isoxazol-5-yl]-biphenyl-4-yl}-cyclopropanecarboxylic acid] |
| < 300 | Cc1noc(-c2ccc(-c3ccc(C4(C(=O)O)CC4)cc3)cc2)c1CC(O)CCc1ccccc1 (stereo not shown) [Compound 20, 1-{4′-[4-(2-Hydroxy-4-phenyl-butyl)-3-methyl-isoxazol-5-yl]-biphenyl-4-yl}-cyclopropanecarboxylic acid] |
| 300 to 1000 | Cc1noc(-c2ccc(-c3ccc(C4(C(=O)O)CC4)cc3)cc2)c1CCC(O)Cc1ccccc1 (stereo not shown) [Compound 23, 1-{4′-[4-(3-Hydroxy-4-phenyl-butyl)-3-methyl-isoxazol-5-yl]-biphenyl-4-yl}-cyclopropanecarboxylic acid] |
| < 300 | Cc1noc(-c2ccc(-c3ccc(C4(C(=O)O)CC4)cc3)cc2)c1CC(C)(O)CCc1ccccc1 (stereo not shown) [Compound 25, 1-{4′-[4-(2-Hydroxy-2-methyl-4-phenyl-butyl)-3-methyl-isoxazol-5-yl]-biphenyl-4-yl}-cyclopropanecarboxylic acid] |
| < 300 | Cc1noc(-c2ccc(-c3ccc(C4(C(=O)O)CC4)cc3)cc2)c1C(C)(O)CCCc1ccccc1 (stereo not shown) [Compound 26, 1-{4′-[4-(1-Hydroxy-1-methyl-4-phenyl-butyl)-3-methyl-isoxazol-5-yl]-biphenyl-4-yl}-cyclopropanecarboxylic acid] |
| 1000 to 50000 | Cc1noc(-c2ccc(-c3ccc(C4(C(=O)O)CC4)cc3)cc2)c1CC(O)CNCc1ccccc1 (stereo not shown) [Compound 27, 1-{4′-[4-(3-Benzylamino-2-hydroxy-propyl)-3-methyl-isoxazol-5-yl]-biphenyl-4-yl}-cyclopropanecarboxylic acid] |
| 300 to 1000 | Cc1noc(-c2ccc(-c3ccc(C4(C(=O)O)CC4)cc3)cc2)c1CCNCc1ccccc1 [Compound 28, 1-{4′-[4-(2-Benzylamino-ethyl)-3-methyl-isoxazol-5-yl]-biphenyl-4-yl}-cyclopropanecarboxylic acid] |

More lines, now with the values behind:

| SMILES | IC50 [nM] |
| --- | --- |
| Cc1noc(-c2ccc(-c3ccc(C4(C(=O)O)CC4)cc3)cc2)c1NCCC(C)c1ccccc1 (stereo not shown) [Compound 1, 1-{4′-[3-Methyl-4-(3-phenyl-butylamino)-isoxazol-5-yl]-biphenyl-4-yl}-cyclopropanecarboxylic acid] | < 300 |
| Cc1noc(-c2ccc(-c3ccc(C4(C(=O)O)CC4)cc3)cc2)c1NCC(C)Cc1ccc(C(C)C)cc1 (stereo not shown) [Compound 3, 1-(4′-{4-[3-(4-Isopropyl-phenyl)-2-methyl-propylamino]-3-methyl-isoxazol-5-yl}-biphenyl-4-yl)-cyclopropanecarboxylic acid] | 300 to 1000 |
| Cc1noc(-c2ccc(-c3ccc(C4(C(=O)O)CC4)cc3)cc2)c1COCC(C)c1ccccc1 (stereo not shown) [Compound 11, 1-{4′-[3-Methyl-4-(2-phenyl-propoxymethyl)-isoxazol-5-yl]-biphenyl-4-yl}-cyclopropanecarboxylic acid] | < 300 |
| Cc1noc(-c2ccc(-c3ccc(C4(C(=O)O)CC4)cc3)cc2)c1CNCC(O)c1ccccc1 (stereo not shown) [Compound 12, 1-(4′-{4-[(2-Hydroxy-2-phenyl-ethylamino)-methyl]-3-methyl-isoxazol-5-yl}-biphenyl-4-yl)-cyclopropanecarboxylic acid] | 1000 to 50000 |
| Cc1noc(-c2ccc(-c3ccc(C4(C(=O)O)CC4)cc3)cc2)c1CNCC(C)c1ccccc1 (stereo not shown) [Compound 13, 1-(4′-{3-Methyl-4-[(2-phenyl-propylamino)-methyl]-isoxazol-5-yl}-biphenyl-4-yl)-cyclopropanecarboxylic acid] | < 300 |
| Cc1noc(-c2ccc(-c3ccc(C4(C(=O)O)CC4)cc3)cc2)c1CCOCc1ccccc1Cl [Compound 15, 1-(4′-{4-[2-(2-Chloro-benzyloxy)-ethyl]-3-methyl-isoxazol-5-yl}-biphenyl-4-yl)-cyclopropanecarboxylic acid] | < 300 |
| Cc1noc(-c2ccc(-c3ccc(C4(C(=O)O)CC4)cc3)cc2)c1CCOCc1cccc(Cl)c1 [Compound 16, 1-(4′-{4-[2-(3-Chloro-benzyloxy)-ethyl]-3-methyl-isoxazol-5-yl}-biphenyl-4-yl)-cyclopropanecarboxylic acid] | < 300 |
| Cc1noc(-c2ccc(-c3ccc(C4(C(=O)O)CC4)cc3)cc2)c1CCOCc1ccc(Cl)cc1 [Compound 17, 1-(4′-{4-[2-(4-Chloro-benzyloxy)-ethyl]-3-methyl-isoxazol-5-yl}-biphenyl-4-yl)-cyclopropanecarboxylic acid] | < 300 |
| Cc1noc(-c2ccc(-c3ccc(C4(C(=O)O)CC4)cc3)cc2)c1COCC(C)(O)c1ccccc1 (stereo not shown) [Compound 19, 1-{4′-[4-(2-hydroxy-2-phenyl-propoxymethyl)-3-methyl-isoxazol-5-yl]-biphenyl-4-yl}-cyclopropanecarboxylic acid] | 1000 to 50000 |
| Cc1noc(-c2ccc(-c3ccc(C4(C(=O)O)CC4)cc3)cc2)c1CNC[C@H](C)c1ccccc1 [Compound 22, 1-(4′-{3-Methyl-4-[((R)-2-phenyl-propylamino)-methyl]-isoxazol-5-yl}-biphenyl-4-yl)-cyclopropanecarboxylic acid] | < 300 |
